Data as given in ChEMBL document CHEMBL1145278, “Inhibitors of HCV NS5B polymerase. Part 2: Evaluation of the northern region of (2Z)-2-benzoylamino-3-(4-phenoxy-phenyl)-acrylic acid” (Bioorg Med Chem Lett, 2005).

Assays:
[1] = molecular target: RNA-directed RNA polymerase (Hepacivirus hominis, UniProt O39930); assay: Inhibitory concentration against RNA dependent RNA polymerase Nonstructural protein 5B (HCV NS5B polymerase) in Hepatitis C virus
[2] = molecular target: RNA-directed RNA polymerase (Hepacivirus hominis) (UniProt O39930); assay: Effective dose for RNA dependent RNA polymerase Nonstructural protein 5B (HCV NS5B polymerase) in Hepatitis C virus
[3] = molecular target: RNA-directed RNA polymerase (Hepacivirus hominis) (UniProt O39930); assay: Cytotoxic concentration against RNA dependent RNA polymerase Nonstructural protein 5B (HCV NS5B polymerase) in Hepatitis C virus
[4] = molecular target: RNA-directed RNA polymerase (Hepacivirus hominis) (UniProt O39930); assay: Ratio for cellular to RNA dependent RNA polymerase Nonstructural protein 5B activity in Hepatitis C virus
[5] = Maximum concentration upon oral administration to rat at 5 mg/kg; assay type: ADME, organism-based; set-up: dose 5 mg/kg, route oral; conditions: in vivo
Rattus norvegicus [6] = assay: Oral bioavailability in rat; assay type: functional, organism-based
Rattus norvegicus [7] = assay: Half life was determined upon oral administration to rat; assay type: functional, organism-based
[8] = Clearance measured in Sprague Dawley rat dosed at 5mg/kg; assay type: ADME, organism-based; conditions: in vivo

Sequence of RNA-directed RNA polymerase (Hepacivirus hominis) (O39930 1-591): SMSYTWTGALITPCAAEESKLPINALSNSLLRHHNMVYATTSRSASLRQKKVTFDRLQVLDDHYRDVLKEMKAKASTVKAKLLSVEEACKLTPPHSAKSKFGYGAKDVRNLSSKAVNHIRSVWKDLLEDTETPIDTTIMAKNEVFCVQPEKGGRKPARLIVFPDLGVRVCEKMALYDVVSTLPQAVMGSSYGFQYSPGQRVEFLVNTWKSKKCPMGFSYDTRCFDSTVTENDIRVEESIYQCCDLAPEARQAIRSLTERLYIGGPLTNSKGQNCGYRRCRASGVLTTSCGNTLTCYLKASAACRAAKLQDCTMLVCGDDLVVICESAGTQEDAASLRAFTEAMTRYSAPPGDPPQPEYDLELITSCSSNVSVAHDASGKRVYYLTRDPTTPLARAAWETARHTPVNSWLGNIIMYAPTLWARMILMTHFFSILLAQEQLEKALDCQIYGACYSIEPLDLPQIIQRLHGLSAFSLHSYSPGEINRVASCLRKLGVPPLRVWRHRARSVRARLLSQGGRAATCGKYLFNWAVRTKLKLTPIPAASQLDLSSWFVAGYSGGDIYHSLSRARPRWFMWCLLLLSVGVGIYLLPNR
Sequence of RNA-directed RNA polymerase (O39930 whole entry): as the sequence (O39930 1-591) above

Row | IC50 [1] | ED50 [2] | Ratio [4] | Cmax [5] | clearance [8] | SMILES | CC50 [3] | bioavailability (Rattus norvegicus [6]) | T1/2 (Rattus norvegicus [7])
1 | 12 µM | > 50 µM | – | – | – | O=C(Nc1ccc(O)cc1)/C(=C/c1ccc(Oc2ccccc2Br)cc1)NC(=O)c1ccccc1 | 22 µM | – | –
2 | 6 µM | 12 µM | 2 | – | – | O=C(CCC1CCCC1)N/C(=C\c1ccc(Oc2ccccc2Br)cc1)C(=O)O | > 100 µM | – | –
3 | 0.83 µM | > 100 µM | – | – | – | O=C(O)CCCC(=O)N/C(=C\c1ccc(Oc2ccccc2I)cc1)C(=O)O | – | – | –
4 | 0.12 µM | > 100 µM | – | – | – | O=C(O)/C(=C/c1ccc(Oc2ccccc2Br)cc1)NC(=O)c1ccc(Br)cc1 | > 100 µM | – | –
5 | 1 µM | > 100 µM | – | – | – | O=C(Cc1ccc(C(F)(F)F)cc1)N/C(=C\c1ccc(Oc2ccccc2Br)cc1)C(=O)O | 18 µM | – | –
6 | 0.4 µM | > 50 µM | – | – | – | O=C(Nc1ccccc1C(=O)O)/C(=C/c1ccc(Oc2ccccc2Br)cc1)NC(=O)c1ccccc1 | > 50 µM | – | –
7 | 0.6 µM | > 100 µM | – | – | – | O=C(CCc1ccc(F)cc1)N/C(=C\c1ccc(Oc2ccccc2Br)cc1)C(=O)O | > 100 µM | – | –
8 | 2.2 µM | > 100 µM | – | – | – | O=C(CC1CCCCC1)N/C(=C\c1ccc(Oc2ccccc2Br)cc1)C(=O)O | – | – | –
9 | 0.11 µM | > 100 µM | – | – | – | O=C(O)/C(=C/c1ccc(Oc2ccccc2Br)cc1)NC(=O)c1ccc(Cl)cc1 | > 100 µM | – | –
10 | 0.85 µM | > 100 µM | – | – | – | O=C(CC1CCCC1)N/C(=C\c1ccc(Oc2ccccc2Br)cc1)C(=O)O | – | – | –
11 | 0.37 µM | > 100 µM | – | – | – | O=C(CCc1ccc(C(F)(F)F)cc1)N/C(=C\c1ccc(Oc2ccccc2Br)cc1)C(=O)O | > 100 µM | – | –
12 | 7.1 µM | 15 µM | 2 | – | – | CCc1ccccc1Oc1ccc(/C=C(\NC(=O)CCC2CCCC2)C(=O)O)cc1 | > 100 µM | – | –
13 | 0.05 µM | 70 µM | – | – | – | CCc1ccccc1C(=O)N/C(=C\c1ccc(Oc2ccccc2Br)cc1)C(=O)O | > 100 µM | – | –
14 | 1 µM | > 50 µM | – | – | – | NNC(=O)/C(=C/c1ccc(Oc2ccccc2Br)cc1)NC(=O)c1ccccc1 | > 50 µM | – | –
15 | 0.09 µM | 53 µM | – | – | – | O=C(O)/C(=C/c1ccc(Oc2ccccc2Br)cc1)NC(=O)c1cccc(F)c1 | > 100 µM | – | –

The remaining lines, values behind:

Row | SMILES | IC50 [1] | ED50 [2] | Ratio [4] | Cmax [5] | clearance [8] | CC50 [3] | bioavailability (Rattus norvegicus [6]) | T1/2 (Rattus norvegicus [7])
16 | O=C(NCc1ccccc1)/C(=C/c1ccc(Oc2ccccc2Br)cc1)NC(=O)c1ccccc1 | > 100 µM | > 50 µM | – | – | – | > 50 µM | – | –
17 | O=C(Cc1ccc(F)cc1)N/C(=C\c1ccc(Oc2ccccc2Br)cc1)C(=O)O | 2.2 µM | > 100 µM | – | – | – | > 100 µM | – | –
18 | O=C(Nc1ccccc1)/C(=C/c1ccc(Oc2ccccc2Br)cc1)NC(=O)c1ccccc1 | > 100 µM | > 50 µM | – | – | – | > 50 µM | – | –
19 | Cc1ccc(C(=O)N/C(=C\c2ccc(Oc3ccccc3Br)cc2)C(=O)O)cc1 | 0.25 µM | > 100 µM | – | – | – | > 100 µM | – | –
20 | O=C(O)/C(=C/c1ccc(Oc2ccccc2Br)cc1)NC(=O)c1ccccc1F | 0.18 µM | > 100 µM | – | – | – | > 100 µM | – | –
21 | NC(=O)/C(=C/c1ccc(Oc2ccccc2Br)cc1)NC(=O)c1ccccc1 | 0.5 µM | 20 µM | – | – | – | 45 µM | – | –
22 | Cc1ccc(CCC(=O)N/C(=C\c2ccc(Oc3ccccc3Br)cc2)C(=O)O)cc1 | 2.6 µM | > 100 µM | – | – | – | > 100 µM | – | –
23 | O=C(O)/C(=C/c1ccc(Oc2ccccc2Br)cc1)NC(=O)c1ccc(F)cc1F | 0.23 µM | > 100 µM | – | – | – | > 100 µM | – | –
24 | O=C(O)/C(=C/c1ccc(Oc2ccccc2I)cc1)NC(=O)C1CC1 | 2.8 µM | > 100 µM | – | – | – | – | – | –
25 | O=C(Cc1ccc(Cl)cc1)N/C(=C\c1ccc(Oc2ccccc2Br)cc1)C(=O)O | 0.94 µM | > 100 µM | – | – | – | > 100 µM | – | –
26 | O=C(O)CCC(=O)N/C(=C\c1ccc(Oc2ccccc2I)cc1)C(=O)O | 0.79 µM | > 100 µM | – | – | – | – | – | –
27 | O=C(O)/C(=C/c1ccc(Oc2ccccc2Br)cc1)NC(=O)c1ccccc1 | – | 28 µM | 280 | 9 µM | 3.33 mL/min/kg | > 100 µM | 21% | 1.5 h
28 | O=C(O)/C(=C/c1ccc(Oc2ccccc2Br)cc1)NC(=O)c1ccccc1O | 0.08 µM | > 100 µM | – | – | – | > 100 µM | – | –
29 | O=C(O)/C(=C/c1ccc(Oc2ccccc2Br)cc1)NC(=O)C1CCCCC1 | 0.2 µM | > 100 µM | – | – | – | – | – | –
30 | CC(O)C(=O)N/C(=C\c1ccc(Oc2ccccc2I)cc1)C(=O)O (stereo unspecified) | 4.8 µM | > 100 µM | – | – | – | – | – | –
31 | O=C(O)/C(=C/c1ccc(Oc2ccccc2Br)cc1)NC(=O)C1CC2CCC1C2 (stereo unspecified) | 0.1 µM | > 100 µM | – | – | – | – | – | –
32 | O=C(Nc1ccccc1O)/C(=C/c1ccc(Oc2ccccc2Br)cc1)NC(=O)c1ccccc1 | 15 µM | > 50 µM | – | – | – | > 50 µM | – | –

Row | SMILES | IC50 [1] | ED50 [2] | Ratio [4] | Cmax [5] | clearance [8] | CC50 [3] | bioavailability (Rattus norvegicus [6]) | T1/2 (Rattus norvegicus [7])
33 | O=C(NCCO)/C(=C/c1ccc(Oc2ccccc2Br)cc1)NC(=O)c1ccccc1 | 2.7 µM | 8 µM | 3 | 1.5 µM | 53.3 mL/min/kg | > 50 µM | 76% | 1 h
34 | O=C(CCC1CCCC1)N/C(=C\c1ccc(Oc2ccccc2C(F)(F)F)cc1)C(=O)O | 6.3 µM | 5 µM | 0.7 | – | – | > 100 µM | – | –
35 | Nc1ccc(Oc2ccc(/C=C(\NC(=O)CCC3CCCC3)C(=O)O)cc2)c(C(F)(F)F)c1 | 14 µM | 5 µM | 0.4 | – | – | > 50 µM | – | –
36 | O=C(CO)N/C(=C\c1ccc(Oc2ccccc2I)cc1)C(=O)O | 2 µM | > 100 µM | – | – | – | – | – | –
37 | O=C(CCC1CCCC1)N/C(=C\c1ccc(Oc2ccc(F)cc2Br)cc1)C(=O)O | 15 µM | 12 µM | 0.8 | – | – | > 100 µM | – | –
38 | O=C(Cc1ccc(I)cc1)N/C(=C\c1ccc(Oc2ccccc2Br)cc1)C(=O)O | 1 µM | > 100 µM | – | – | – | > 100 µM | – | –
39 | O=C(Cc1ccc(Br)cc1)N/C(=C\c1ccc(Oc2ccccc2Br)cc1)C(=O)O | 0.82 µM | > 100 µM | – | – | – | > 100 µM | – | –
40 | O=C(CCC1CCCCC1)N/C(=C\c1ccc(Oc2ccccc2Br)cc1)C(=O)O | 13 µM | > 100 µM | – | – | – | – | – | –
41 | O=C(O)/C(=C/c1ccc(Oc2ccccc2Br)cc1)NC(=O)c1ccc(F)c(F)c1 | 0.23 µM | > 100 µM | – | – | – | > 100 µM | – | –
42 | O=C(O)/C(=C/c1ccc(Oc2ccccc2I)cc1)NC(=O)C(O)c1ccccc1 (stereo unspecified) | 3.1 µM | > 100 µM | – | – | – | – | – | –
43 | O=C(O)CNC(=O)/C(=C/c1ccc(Oc2ccccc2Br)cc1)NC(=O)c1ccccc1 | 0.06 µM | > 50 µM | – | – | – | > 50 µM | – | –
44 | O=C(O)/C(=C/c1ccc(Oc2c(F)cccc2Br)cc1)NC(=O)c1ccccc1 | – | 60 µM | – | – | – | – | – | –
45 | O=C(Nc1cccc(O)c1)/C(=C/c1ccc(Oc2ccccc2Br)cc1)NC(=O)c1ccccc1 | 1.9 µM | 15 µM | – | – | – | 25 µM | – | –
46 | O=C(O)/C(=C/c1ccc(Oc2ccccc2Br)cc1)NC(=O)C12CC3CC(CC(C3)C1)C2 | – | > 100 µM | – | – | – | – | – | –
47 | O=C(CCC1CCCC1)N/C(=C\c1ccc(Oc2ccccc2I)cc1)C(=O)O | 7 µM | 15 µM | 2 | – | – | – | – | –
48 | CONC(=O)/C(=C/c1ccc(Oc2ccccc2Br)cc1)NC(=O)c1ccccc1 | 0.8 µM | > 50 µM | – | – | – | 22 µM | – | –
49 | O=C(CCc1ccc(Cl)cc1)N/C(=C\c1ccc(Oc2ccccc2Br)cc1)C(=O)O | 0.5 µM | > 100 µM | – | – | – | > 100 µM | – | –
